Measurements from patent US11730743B2, “Protection of cells from degeneration and treatment of geographic atrophy” (University of Kentucky Research Foundation, priority 2012, dated 2023).

How the values were obtained:
Dicer1f/f mice = experiment: RPE degeneration induced by subretinal AAV1-BEST1-Cre (DICER1 loss); assay type: in vivo; conditions: inhibitor intravitreous
Experimental: Immunolabeling. Human eyes fixed in 2-4% paraformaldehyde were prepared as eyecups, cryoprotected in 30% sucrose, embedded in optimal cutting temperature compound (Tissue-Tek OCT; Sakura Finetek), and cryosectioned into 10 μm sections. Depigmentation was achieved using 0.25% potassium permanganate and 0.1% oxalic acid. Immunohistochemical staining was performed with the rabbit antibody against NLRP3 (1:100, Sigma Aldrich) or rabbit antibody against Caspase-1 (prediluted, AbCam). Isotype IgG was substituted for the primary antibody to assess the specificity of the staining. Bound antibody was detected with biotin-conjugated secondary antibodies, followed by incubation with ABC reagent and visualized by Vector Blue (Vector Laboratories). Levamisole (Vector Laboratories) was used to block endogenous alkaline phosphatase activity. Slides were washed in PBS, counterstained with neutral red (Fisher Scientific), rinsed with deionized water, air dried, and then mounted in Vectamount (Vector Laboratories). Fluorescent labeling of human tissue was performed with the rabbit antibody against PYCARD (1:50, Clone N-15, Santa Cruz Biotechnology). Immunolabeling was visualized by fluorescently conjugated anti-rabbit secondary antibody (Invitrogen). Tissue autofluorescence was quenched by incubating the sections in 0.3% Sudan black (Fisher Scientific). […]

human RPE cells = test system: human RPE cells
Experimental: Cell viability. Cell viability measurements were performed using the CellTiter 96 AQueous One Solution Cell Proliferation Assay (Promega) in according to the manufacturer's instructions.
Cell culture. All cell cultures were maintained at 37° C. and 5% CO2. Primary mouse RPE cells were isolated as previously described (Yang et al., 2009) and grown in Dulbecco Modified Eagle Medium (DMEM) supplemented with 20% FBS and standard antibiotics concentrations. Primary human RPE cells were isolated as previously described (Yang et al., 2008) and maintained in DMEM supplemented with 10% FBS and antibiotics. HeLa cells were maintained in DMEM supplemented with 20% FBS and standard antibiotics concentrations. THP-1 cells were cultured in RPMI 1640 medium supplemented with 10% FBS and antibiotics.
Transient transfection. Human or mouse RPE cells were transfected with pUC19, pAlu, pCDNA3.1/Dicer-FLAG, pCDNA3.1, Alu RNA, NLRP3 siRNA sense, PYCARD siRNA sense, MyD88 siRNA sense, DICER1 antisense oligonucleotide (AS), control (for DICER1) AS, Alu AS, and control (for Alu) AS using Lipofectamine 2000 (Invitrogen) according to the manufacturer's instructions.
Cell viability. MTS assays were performed using the CellTiter 96 AQueous One Solution Cell Proliferation Assay (Promega) according to the manufacturer's instructions. For examining the cytoprotective effect of glycine in Alu RNA induced cell death, human RPE cells were transfected with pNull/pAlu. At 6 h post-transfection the cells were incubated with complete media containing glycine (5 mM) or vehicle, and cell viability was assessed after 24 h. Similarly, human RPE cells primed with LPS (5 μg/ml for 6 h) were treated with ATP (25 μM) in the presence of glycine containing media (5 mM). 30 min post ATP cell viability was assessed as described above.

[1] = test system: Dicer1f/f mouse RPE cells; experiment: Cell viability of Dicer1f/f mouse RPE cells treated with Ad-Cre; assay type: cell-based
Experimental: Adenoviral infection. Cells were plated at density of 15×10^3/cm^2 and after 16 h, at approximately 50% confluence, were infected with AdCre or AdNull (Vector Laboratories) with a multiplicity of infection of 1,000.

Caspase-3 = Caspase-3 activation in the RPE of wild-type mice; assay type: in vivo; conditions: inhibitor intravitreous
Experimental: Drug treatments. siRNAs formulated in siRNA buffer (20 mM KCL, 0.2 mM MgCl2 in HEPES buffer at pH 7.5; Dharmacon) or phosphate buffered saline (PBS; Sigma-Aldrich); the TLR4 antagonist Ultra Pure Rhodobacter sphaeroides LPS (LPS-RS, InvivoGen), a peptide inhibitor of MyD88 homodimerization IMG-2005 (IMGENEX), control inhibitor (IMGENEX), recombinant IL-18 (Medical & Biological Laboratories), neutralizing rat antibodies against mouse IL-1β (IMGENEX), neutralizing rat antibodies against mouse IL-18 (Medical & Biological Laboratories), isotype control IgGs (R&D Systems or eBioscience as appropriate), Caspase-1 inhibitor Z-WEHD-FMK (R&D Systems), Caspase-3 inhibitor Z-DEVD-FMK (R&D Systems), Caspase control inhibitor Z-FA-FMK (R&D Systems), (2R,4R)-APDC (Enzo Life Sciences), Glipizide (Sigma-Aldrich), Glyburide (Sigma-Aldrich), and P2X7 receptor antagonist A438079 (Tocris Bioscience) were dissolved in phosphate buffered saline (PBS; Sigma-Aldrich) or dimethyl sulfoxide (DMSO; Sigma-Aldrich), and injected into the vitreous humor in a total volume of 1 μL with a 33-gauge Exmire microsyringe (Ito Corporation). […] As a control, Luc siRNA-chol (17+2 nt) was used with identical dosages.
Caspase-3 activity. The caspase-3 activity was measured using Caspase-3 Fluorimetric Assay (R&D Systems) according to the manufacturer's instruction.

wild-type mice = experiment: Laser-induced choroidal neovascularization; assay type: in vivo; conditions: intravitreous injection

Substance: MyD88 inhibitory peptide: peptide inhibitor of MyD88 homodimerization IMG-2005 (IMGENEX)
- AAV1-BEST1-Cre-induced RPE degeneration (Dicer1f/f mice): blocked
- cell death in human RPE cells treated with antisense oligonucleotides targeting DICER1 (human RPE cells; DICER1 AS): prevented cell death
- pAlu-induced human RPE cell death (loss of cell viability) (human RPE cells; human RPE cells transfected with pAlu): inhibited cell death
- cell death in Dicer1f/f mouse RPE cells treated with adenoviral vector coding for Cre recombinase [1]: prevented cell death
- Alu RNA-induced Caspase-3 activation in the RPE (Caspase-3): inhibited
- laser-induced choroidal neovascularization (wild-type mice): reduced
